Laboratory results: the NIST ThermoML archive (doi:10.1021/je600580r)
Numbers after ± are expanded uncertainties.

Columns and labels:
[1] = Crystal; DTA
[2] = Molar enthalpy of transition or fusion; conditions: Crystal; DSC
[3] = molar enthalpy of vaporization or sublimation; conditions: Liquid, DSC

CCNc1nc(NC(C)(C)C)nc(SC)n1
Normal melting temperature [1]: 99.2 ± 0.5 °C
Molar enthalpy of transition or fusion [2]: 5.02 ± 0.956 kcal/mol
molar enthalpy ([3]; 467 K): 20.8 ± 2.39 kcal/mol

CCNc1nc(NCC)nc(SC)n1 [2-methylthio-4,6-bis(ethylamino)-1,3,5-triazine]
Normal melting temperature [1]: 77.4 ± 0.5 °C
Molar enthalpy of transition or fusion [2]: 5.74 ± 0.478 kcal/mol
molar enthalpy ([3]; 461 K): 21 ± 1.91 kcal/mol

CCNc1nc(NC(C)C)nc(SC)n1 [2-methylthio-4-ethylamino-6-isopropylamino-1,3,5-triazine]
Normal melting temperature [1]: 83.6 ± 0.5 °C
Molar enthalpy of transition or fusion [2]: 6.21 ± 0.956 kcal/mol
molar enthalpy ([3]; 466 K): 21.7 ± 1.91 kcal/mol
